One assay has as its system Dendritic cells. The assay is described as follows: Induction of IL-12 secretion in dendritic cells (ELISA). The assay is classed as cell-based, BALB/c mice. The settings on record: dendritic cells; compounds 50 μg/ml and 20 μg/ml, 24 hrs (or 48 hrs). The method, then:
BALB/c male and female mice bred and maintained at the University of Strathclyde under conventional conditions were used at 8 weeks old.
Bone marrow was obtained from the femurs of mice. The femurs were washed in 70% ethanol and placed in a clean petri dish. Dendritic cell (DC) medium (2.5% granulocyte-macrophage colony-stimulating factor (GM-CSF), 10% […] foetal calf serum, 1% L-glutamine, 1% Penicillin/Streptomycin in RPMI-1640 medium) was injected into the bone marrow of the femur by a pumping action and the cells and medium were collected. 1 ml of the cells in medium was added to a 75 cm^2 flask with 15 mls of DC medium. The flasks were then incubated at 37° C., 5% CO2 to allow DC growth and development. After 5 days an additional 10 mls of DC medium was added.
After 10 days of incubation of bone marrow with GM-CSF, the dendritic cells were harvested. This process was carried out in a tissue culture hood. The contents of the flasks were poured into centrifuge tubes to ensure collection of floating DCs. Approximately 10 mls of cooled phosphate buffered saline (PBS) was added to each empty flask, the flasks gently agitated and the contents collected. […] The collected contents of the flasks were centrifuged for 5 minutes at 200 g and the pellet resuspended in 2 mls of DC medium without GM-CSF. A cell count was then carried out.
Cells were counted using a haemocytometer. Approximately 20 μl of the resuspended cells was pipetted into the chamber of the haemocytometer, the cells were adjusted to the correct cell concentration (approx. 5×10^4, and not less than 1×10^4, per well) and then plated out for assay.
The plates were incubated overnight at 37° C. with 5% CO2 and allowed to settle (harvesting stimulates them). The next day the compounds (50 μg/ml and 20 μg/ml) and controls were added then again incubated at 37° C. with 5% CO2 for 24 hrs (or 48 hrs). Harvesting and addition of the compounds was all done in a hood. The plates were then frozen to kill the cells and once defrosted the supernatant analysed as described below.
Using an enzyme linked immunosorbent assay (ELISA) IL-12 concentration in the supernatants was measured. All reagents used in this assay were from PharMingen. A 96-well flat-bottomed ELISA plate was coated with purified rat anti-mouse IL-12 (p40/p70) MAb (Cat no. 554478) at 2 μg/ml diluted in PBS pH 9.0 at 50 μl/well. The plate was then covered in cling film and incubated at 4° C. Following incubation the plate was washed 3 times in washing buffer and dried. 200 μl of blocking buffer (10% foetal calf serum in PBS pH 7.0) was added to each well then covered in cling film and incubated at 37° C. for 45 minutes. The plate was washed 3 times and dried. Recombinant mouse Il-12 standard was added at 30 μl in duplicate wells, starting at 10 ng/ml then 5, 2.5, 1.25, 0.625, 0.31, 0.156, 0.078, 0.039, 0.020, 0.010, 0.005 ng/ml. Standards were diluted in blocking buffer. The supernatant samples were added in at 50 μl/well. The plate was then covered in cling film and incubated for 2 hours at 37° C. The plate was then washed 4 times, dried and the secondary antibody added.
Biotin labelled anti-mouse IL-12 (p40/p70) MAb (Cat no. 18482D) at 1 μg/ml (diluted in blocking buffer) was added to each well at a volume of 100 μl/well. The plate was covered in cling film and incubated at 37° C. for 1 hour. The plate was then washed 5 times, dried and the conjugate added. Streptavidin-AKP (Cat no. 13043E) at 100 μl/well was added at a dilution of 1/2000 in blocking buffer followed by incubation under cling film at 37° C. for 45 minutes.
The plate was finally washed 6 times, dried and the substrate added. pNPP (Sigma) in glycine buffer at 1 mg/ml was added at 100 μl/well. The plate was then covered in tinfoil, incubated at 37° C. and checked every 30 minutes for a colour change.
The plate was then read at 405 nm using a SPECTRAmax 190 spectrometer.
(In general: ELISA stands for enzyme-linked immunosorbent assay.)

A further assay has as its system β-D-glucosidase. Kind of assay: Glycosidase inhibition, β-D-glucosidase. In kind it is biochemical, Almonds (Prunus sp.). Particulars: 1 mg/ml. The method, then: (§1) All enzymes were purchased from Sigma, as were the appropriate p-nitrophenyl substrates. Assays were carried out in microtitre plates. Enzymes were assayed in 0.1 M citric acid/0.2M di-sodium hydrogen phosphate (McIlvaine) buffers at the optimum pH for the enzyme. All assays were carried out at 20° C. For screening assays the incubation assay consisted of 10 μl of enzyme solution, 10 μl of inhibitor solution (made up in water) and 50 μl of the appropriate 5 mM p-nitrophenyl substrate (3.57 mM final conc.) made up in McIlvaine buffer at the optimum pH for the enzyme.
(§2) The reactions were stopped with 0.4M glycine (pH 10.4) during the exponential phase of the reaction, which was determined at the beginning of the assay using blanks with water, which were incubated for a range of time periods to measure the reaction rate using 5 mM substrate solution. Endpoint absorbances were read at 405 nm with a Biorad microtitre plate reader (Benchmark). Water was substituted for the inhibitors in the blanks.

Assay [1] relates to N-acetyl-β-D-glucosaminidase. The assay is described as follows: Glycosidase inhibition, N-acetyl-β-D-glucosaminidase. In kind it is biochemical, Bovine kidney. Particulars: 1 mg/ml. The method, then: as §1, §2
Another assay concerns β-D-galactosidase. The assay is described as follows: Glycosidase inhibition, β-D-galactosidase. The settings on record: 1 mg/ml; second galactosidase line. In kind it is biochemical, Bovine liver. The method, then:
as §1, §2

The test system of another assay is Naringinase. Kind of assay: Glycosidase inhibition, Naringinase. The assay is classed as biochemical, Penecillium decumbens. The settings on record: 1 mg/ml. The method, then: as §1, §2
The subject of a further assay is α-D-glucosidase. The assay is described as follows: Glycosidase inhibition, α-D-glucosidase (Bacillus). The assay is classed as biochemical, Bacillus stearothermophilus. The settings on record: 1 mg/ml. The method, then: as §1, §2
The subject of another assay is Spleen cells. The assay is described as follows: Cytokine modulation in spleen cells: splenocyte IFN-γ production. In kind it is cell-based, BALB/c mice. The settings on record: result in words. The method, then: BALB/c male and female mice bred and maintained at the University of Strathclyde under conventional conditions were used at varying age.
The mouse spleen was removed aseptically and placed in a sterile petri dish containing 5 mls of complete medium (RPMI, 1% L-Glutamine, 1% Penicillin/Streptomycin and 10% foetal calf serum). Cells suspensions were prepared by using the end of a syringe and grinding the spleen through a wire mesh. The cell suspension was then centrifuged at 1000 rpm for 5 minutes. To remove the erythrocytes, the cell pellet was resuspended in Boyle's solution (Tris 0.17M & Ammonium Chloride 0.16M) and centrifuged again for 5 minutes. The pellet was then washed in medium a further two times, then resuspended in 3 mls medium. A cell count was then carried out.
All spleen cell experiments were carried out in 96-well tissue culture plates. […] Unstimulated wells contained 100 μl of cells and 100 μl of medium. The stimulated wells contained 100 μl of cells plus 50 μl of LPS at 1 μg/ml or 50 μl anti-CD3 at 0.5 μg/ml and 50 μl of medium. The remaining wells contained 100 μl cells, 50 μl of MNLP compound and either 50 μl of anti-CD3 or medium alone.
The appropriate Mabs and standards were used according to the protocol described for IL-12 (described in Example 1, above).

Another assay has as its system glycosidase. Particulars: see U.S. Pat. No. 5,075,457; cited from earlier work.
The nature of assay [2]: Treatment of murine HSV-1 infection: body weight. In kind it is in vivo, BALB/c mice. Particulars: Group 4: via drinking water 1 mg/ml.
For the next assay, the system named is HSV-1 (SC16). Kind of assay: Treatment of murine HSV-1 infection: ear pinna thickness. In kind it is in vivo, BALB/c mice. The settings on record: for Ear pinna thickness (mm^−2): Group 4: via drinking water 1 mg/ml.

Turning to `OC[C@@H]1[C@@H](O)[C@H](O)[C@H]2[C@@H](O)CCN21` [7-epialexine (22), 7-epialexine], the “IL-12 RELEASE” value in the assay with Dendritic cells is listed as “No”.
Consider `OC[C@H]1[C@@H](O)[C@H](O)[C@H]2[C@@H](O)[C@H](O)CN21` [Compound 12, 3,6,7-triepi-casuarine], for which the “% inhibition glucosidase” value in the assay on β-D-glucosidase turned out to be 6%. In assay [1], the “% inhibition N-acetyl-β-gluc” value came to 19%. Moreover, the “% inhibition galactosidase” value in the assay with β-D-galactosidase was 6%. Moreover, the “% inhibition Naringinase” value with Naringinase was 0%. For the same compound, in the assay on α-D-glucosidase, the “% inhibition gluc (Bacillus)” value is on record as 9%.
`OC[C@H]1[C@@H](O)[C@H](O)[C@@H]2[C@@H](O)[C@H](O)CN21` [Compound 21, 3,6,7,7a-tetraepi-casuarine]: in the assay with β-D-glucosidase, the “% inhibition glucosidase” value is given as 44%. Besides, the “% inhibition N-acetyl-β-gluc” value in [1] is reported as 27%. Besides, in the assay on β-D-galactosidase, the “% inhibition galactosidase” value stood at 3%. For the same compound, the “% inhibition Naringinase” value with Naringinase stood at 5%. Further, the “% inhibition gluc (Bacillus)” value in the assay with α-D-glucosidase is reported as −2%.
In the case of `OC[C@H]1NC[C@H](O)[C@@H](O)[C@@H]1O` [1-Deoxynojirimycin (DNJ) (21), 1-Deoxynojirimycin], the “IFN-γ secretion/production in splenocytes” value in the assay on Spleen cells is “inhibited IFN-γ secretion/production in splenocytes”. In the assay on Dendritic cells, the “IL-12 RELEASE” value is listed as “No”.
As to `OC[C@@H]1[C@@H](O)[C@H](O)[C@H]2[C@@H](O)[C@@H](O)CN21` [7-epi-casuarine (11), 7-epi-casuarine], in the assay on β-D-glucosidase, the “% inhibition glucosidase” value worked out at 30%. The “% inhibition Naringinase” value in the assay with Naringinase was −4%. Moreover, the “IL-12 RELEASE” value in the assay with Dendritic cells was “Yes”. In the assay on α-D-glucosidase, the “% inhibition gluc (Bacillus)” value came out at 5%.
On to `OC[C@H]1[C@@H](O)[C@H](O)[C@@H]2[C@@H](O)[C@@H](O)CN21` [Compound 22, 3,7,7a-triepi-casuarine], for which the “% inhibition Naringinase” value in the assay with Naringinase is reported as 10%. The “% inhibition gluc (Bacillus)” value in the assay on α-D-glucosidase is given as 87%.
In the case of `O[C@H]1[C@H]2[C@@H](O)CCN2C[C@H]1O` [7S-epimer (6)], the “glycosidase inhibitory activity relative to swainsonine” value in the assay on glycosidase is listed as “much weaker inhibitory activity relative to swainsonine itself”.
With `OC[C@@H]1[C@@H](O)[C@H](O)[C@@H]2[C@@H](O)CCN21` [Alexine (1), Alexine], in the assay on Dendritic cells, the “IL-12 RELEASE” value is given as “No”.
Consider `O[C@H]1[C@H]2[C@H](O)CCN2C[C@H]1O` [(1S,2R,7R,7aR)-1,2,7-trihydroxypyrrolizidine], for which, in the assay on glycosidase, the “glycosidase inhibitory activity relative to swainsonine” value is recorded as “much weaker inhibitory activity relative to swainsonine itself”.
In the case of `OCC1O[C@H](O[C@H]2CN3[C@@H]([C@@H](O)[C@H](O)[C@H]3CO)[C@@H]2O)C(O)[C@@H](O)[C@@H]1O` (stereo partly drawn) [casuarine-6-α-D-glucopyranose (9), casuarine-6-α-D-glucopyranose], the “IL-12 RELEASE” value in the assay on Dendritic cells is listed as “Yes”.
Consider `CC(=O)OCC(CCn1cnc2cnc(N)nc21)COC(C)=O` [famciclovir, reference compound], for which the “Group mean weight” value worked out at 15.1 g in [2] (day 0); 15.6 g in assay [2] (day 1); 15.8 g in assay [2] (day 2); 16.4 g in [2] (day 3); 16.3 g in [2] (day 4); 16.7 g in assay [2] (day 5). For the same compound, the “Group mean weight” value in assay [2] (day 6) was 17.1 g; in [2] (day 7), 16.7 g; in [2] (day 8) it was 17.1 g; in assay [2] (day 9), 17.1 g; in assay [2] (day 10), 17.2 g; in assay [2] (day 11) it was 17.1 g. Also, the “Group mean weight” value is listed as 17.2 g in assay [2] (day 12) and 13.8 g in assay [2] (day −2). The “Weight (% change)” value in assay [2] (day 0) came out at 9%; in assay [2] (day 1) it was 13%; in assay [2] (day 2), 14.5%; in assay [2] (day 3), 18.8%; in assay [2] (day 4), 18.1%; in assay [2] (day 5), 21%. For the same compound, the “Weight (% change)” value worked out at 23.9% in assay [2] (day 6), 21% in [2] (day 7), 23.9% in assay [2] (day 8) and 0% in assay [2] (day −2). The “Ear pinna thickness (mm^−2)” value is listed as 0 mm^−2 in the assay on HSV-1 (SC16) (day 0); 0 mm^−2 in the assay on HSV-1 (SC16) (day 1); 0 mm^−2 in the assay on HSV-1 (SC16) (day 2); 7 mm^−2 in the assay with HSV-1 (SC16) (day 3); 7 mm^−2 in the assay on HSV-1 (SC16) (day 4); 0 mm^−2 with HSV-1 (SC16) (day 5). Further, the “Ear pinna thickness (mm^−2)” value was found to be 4 mm^−2 with HSV-1 (SC16) (day 6); 0 mm^−2 in the assay with HSV-1 (SC16) (day 7); 2.9 mm^−2 with HSV-1 (SC16) (day 8); 2.9 mm^−2 in the assay on HSV-1 (SC16) (day 9); 2.9 mm^−2 with HSV-1 (SC16) (day 11); 0 mm^−2 with HSV-1 (SC16) (day −2). In the assay on HSV-1 (SC16) (result in words, casuarine at both doses (15 and 150 mg/kg i.p.), famciclovir via drinking water 1 mg/ml), the ear thickness response entry was “almost completely negated the ear thickness response”.
Consider `OC[C@H]1[C@@H](O)[C@H](O)[C@H]2[C@@H](O)CCN21` [3,7a-diepialexine (23), 3,7a-diepialexine], for which the “IL-12 RELEASE” value in the assay on Dendritic cells is given as “No”.

The values above are taken from patent US8557859B2, “Immunomodulatory compositions” (Summit (Wales) Limited, priority 2003, dated 2013).
